Earlier results as cited in US20140234410A1, “COMBINATION PRODUCTS” (SIGMOID PHARMA LTD., priority 2004, published 2014).

Experiments:
tumour growth = settings: simultaneous administration with R-verapamil
thrombocythemia = settings: co-administrated with a small dose of aspirin; people with thrombocythemia
[1] = in vivo
[2] = adults
[3] = in vivo; remark: listed apart in the source

In the case of COCCOC(=O)C1=C(C)NC(C)=C(C(=O)OC(C)C)C1c1cccc([N+](=O)[O-])c1 (stereo not shown) [Nimodipine], the solubility in water is given as “practically insoluble”.

For CC/C(=C(\c1ccccc1)c1ccc(OCCN(C)C)cc1)c1ccccc1 [tamoxifen, Tamoxifen], the tumour growth (tumour growth) is listed as “significantly decreases”.

In the case of NC(=O)NO [Hydroxyurea], the solubility in water is given as “freely soluble” and the “preventing serious bleeding and other complications versus anagrelide hydrochloride” value (thrombocythemia) is given as “more effective”.

In the case of CCCC(CCC)C(=O)O [valproic acid], the “plasma concentrations of nimodipine” value (cytochrome P450; two drugs administered in combination) is listed as “increased”.

For CN(CCOc1ccc(CC2SC(=O)NC2=O)cc1)c1ccccn1 (stereo not shown) [rosiglitazone, Rosiglitazone], the “solubility as a function of pH” value (physiological range) is given as “decreases with increasing pH”.

For Cn1c(=O)c2[nH]cnc2n(C)c1=O [Theophylline], the “concentrations with anti-inflammatory and immunostimulatory effect” value [1] is listed as 5 to 10 mg/L and the biological half life [2] is listed as less than 6 hours.

In the case of COc1ccc2c(c1)[C@]13CCCC[C@@H]1[C@H](C2)N(C)CC3 [Dextromethorphan], the “adverse effects, share of people” value [3] is listed as “less than 1%”.

For CN/C(=N/CCSCc1nc[nH]c1C)NC#N [cimetidine], the bioavailability of nimodipine (cytochrome P450; effect of the co-administered drug) is listed as “approximate doubling”.
